The values that follow come from patent US7799535B1 (priority 1997, dated 2010).

Like-named read-outs stand apart in the source and are kept apart here.

One assay has as its target 35S-PrPC (Mesocricetus auratus, UniProt P04273). The class given is biochemical, hamster.
The target of assay [1] is T1, Hsp104 (Saccharomyces cerevisiae, UniProt P31539). The class given is biochemical, yeast.
Assay [2] deals with T1, Hsp104. The format is binding, yeast.
A further assay addresses Sup35 (Saccharomyces cerevisiae, UniProt P05453). Kind of assay: Circular dichroism spectral shifts of mixtures with Sup35. The format is binding, yeast. Conditions: LSB1; 1 hr, 1 mM ATP, 37° C. As for the experimental part: Reactions were incubated for 1 hr with 1 mM ATP at 37° C., and transferred to a 0.1 mm path-length cuvette. Spectra were recorded at 25° C. in a Jasco 715 spectropolarimeter (bandwidth 1.0 nm, response time 16 sec, speed 20 nm/min, step resolution 0.2 nm, accumulations 4).
On the technique in general: Circular dichroism is widely used to follow secondary structure.

In the next assay the target is rPrPβ (Mesocricetus auratus, UniProt P04273). The class given is binding, hamster. Conditions: LSB2; each at 0.5 mg/ml; 37° C. for 1 hr.
Sequence of rPrPβ (P04273 90-231 limits assumed): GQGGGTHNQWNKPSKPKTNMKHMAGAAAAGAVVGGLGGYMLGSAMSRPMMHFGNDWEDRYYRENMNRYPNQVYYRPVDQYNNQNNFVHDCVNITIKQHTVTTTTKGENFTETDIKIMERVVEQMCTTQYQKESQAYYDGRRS
[3] abbreviates: reactions seeded with partially denatured PrPSc.
[4] abbreviates: reactions seeded with untreated PrPSc.

Sequence of 35S-PrPC (P04273 23-231 limits assumed): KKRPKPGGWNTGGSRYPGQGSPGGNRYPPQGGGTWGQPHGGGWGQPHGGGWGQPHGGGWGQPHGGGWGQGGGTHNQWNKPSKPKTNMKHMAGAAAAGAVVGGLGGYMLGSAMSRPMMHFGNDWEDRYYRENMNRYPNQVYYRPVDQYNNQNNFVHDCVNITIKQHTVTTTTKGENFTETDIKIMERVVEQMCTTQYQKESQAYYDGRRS
T1 sequence (P31539 whole entry, looked up): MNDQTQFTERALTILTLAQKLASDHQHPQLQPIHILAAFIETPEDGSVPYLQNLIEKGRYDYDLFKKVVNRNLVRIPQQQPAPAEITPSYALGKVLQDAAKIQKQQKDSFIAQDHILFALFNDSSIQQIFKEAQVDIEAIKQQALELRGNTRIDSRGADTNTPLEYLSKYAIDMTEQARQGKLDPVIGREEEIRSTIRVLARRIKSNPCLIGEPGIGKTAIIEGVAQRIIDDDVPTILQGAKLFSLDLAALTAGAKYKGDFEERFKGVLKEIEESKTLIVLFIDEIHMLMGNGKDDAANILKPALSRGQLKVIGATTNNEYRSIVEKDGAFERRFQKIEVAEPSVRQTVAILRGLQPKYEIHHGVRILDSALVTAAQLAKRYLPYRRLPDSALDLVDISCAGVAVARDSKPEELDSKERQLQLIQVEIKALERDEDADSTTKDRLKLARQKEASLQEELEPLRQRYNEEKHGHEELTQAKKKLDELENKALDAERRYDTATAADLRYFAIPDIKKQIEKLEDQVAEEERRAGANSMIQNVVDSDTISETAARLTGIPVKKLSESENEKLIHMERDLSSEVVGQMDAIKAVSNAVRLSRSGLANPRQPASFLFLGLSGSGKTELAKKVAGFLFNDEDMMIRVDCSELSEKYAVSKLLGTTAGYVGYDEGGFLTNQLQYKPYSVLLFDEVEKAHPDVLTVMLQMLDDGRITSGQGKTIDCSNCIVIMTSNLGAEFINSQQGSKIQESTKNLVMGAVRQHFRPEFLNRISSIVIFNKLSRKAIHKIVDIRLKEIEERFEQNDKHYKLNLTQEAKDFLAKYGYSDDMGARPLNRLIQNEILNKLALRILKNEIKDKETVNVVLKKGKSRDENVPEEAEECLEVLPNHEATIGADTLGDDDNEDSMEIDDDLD
Sequence of Sup35 (P05453 whole entry): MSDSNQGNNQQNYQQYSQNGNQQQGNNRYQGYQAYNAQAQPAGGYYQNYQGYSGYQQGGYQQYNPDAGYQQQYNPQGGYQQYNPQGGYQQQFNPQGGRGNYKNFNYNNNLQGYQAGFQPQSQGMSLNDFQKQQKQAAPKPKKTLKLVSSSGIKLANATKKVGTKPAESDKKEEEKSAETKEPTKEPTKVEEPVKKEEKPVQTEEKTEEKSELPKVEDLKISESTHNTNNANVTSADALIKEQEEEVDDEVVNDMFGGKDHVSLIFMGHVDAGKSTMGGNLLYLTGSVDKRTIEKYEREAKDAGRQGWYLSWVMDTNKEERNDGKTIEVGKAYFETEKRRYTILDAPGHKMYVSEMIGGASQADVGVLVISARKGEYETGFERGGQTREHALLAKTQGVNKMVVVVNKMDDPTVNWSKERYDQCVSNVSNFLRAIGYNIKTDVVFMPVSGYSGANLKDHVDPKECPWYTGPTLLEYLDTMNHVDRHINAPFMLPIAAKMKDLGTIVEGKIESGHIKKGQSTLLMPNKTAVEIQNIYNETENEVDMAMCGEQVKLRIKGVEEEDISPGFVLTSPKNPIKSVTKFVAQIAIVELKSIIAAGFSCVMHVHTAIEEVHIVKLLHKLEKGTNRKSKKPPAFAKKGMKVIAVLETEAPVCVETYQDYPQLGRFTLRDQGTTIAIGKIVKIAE

With `OC[C@H]1O[C@@](CO)(O[C@H]2O[C@H](CO)[C@@H](O)[C@H](O)[C@H]2O)[C@@H](O)[C@@H]1O` [sucrose], the entries for the “effect of chemical chaperones on 35S-PrPC conversion” value (shortened to “effect of chemical chaperones”) at 35S-PrPC (setting [3]), at 35S-PrPC (setting [4]) and at 35S-PrPC (reactions without PrPSc) were “inhibited conversion”, “None of the compounds tested affected” and “None of the compounds tested affected”, respectively.
On to “β-amyloid 1-40: a less amyloidogenic derivative of β-amyloid”, for which the “effect on the ATPase activity of Hsp104 (in words)” value with Hsp104 [1] is listed as “Less inhibition”.
For the molecule `OC[C@H]1O[C@H](O[C@H]2O[C@H](CO)[C@@H](O)[C@H](O)[C@H]2O)[C@H](O)[C@@H](O)[C@@H]1O` [trehalose], the “effect of chemical chaperones” value at 35S-PrPC (setting [3]) is recorded as “inhibited conversion”; at 35S-PrPC (setting [4]), “None of the compounds tested affected”; on 35S-PrPC (reactions without PrPSc) it was “None of the compounds tested affected”.
On to “β-amyloid 1-42: amyloidogenic peptide, fragment found in neural plaques associated with Alzheimer's disease”, for which the “effect on the ATPase activity of Hsp104 (in words)” value in the assay with Hsp104 [1] was “inhibited”.
In the case of α-2 macroglobulin, the “CD spectrum of mixture with Hsp104 compared with predicted spectrum” value on Hsp104 [2] is “observed spectra matched the predicted spectra”. Besides, at Sup35, the “CD spectrum of mixture with Sup35 compared with predicted spectrum” value was “observed spectra matched the predicted spectra”. The “CD spectrum of mixture with rPrPβ compared with predicted spectrum” value at rPrPβ is “much smaller”.
Turning to α-lactalbumin, the “CD spectrum of mixture with Hsp104 compared with predicted spectrum” value at Hsp104 [2] was “observed spectra matched the predicted spectra”. The “CD spectrum of mixture with Sup35 compared with predicted spectrum” value on Sup35 is “observed spectra matched the predicted spectra”. Further, the “CD spectrum of mixture with rPrPβ compared with predicted spectrum” value on rPrPβ is listed as “much smaller”.
For `OCC(O)CO` [glycerol], the “effect of chemical chaperones” value at 35S-PrPC (setting [3]) was “no effect”; on 35S-PrPC (setting [4]), “None of the compounds tested affected”; at 35S-PrPC (reactions without PrPSc), “None of the compounds tested affected”.
In the case of `Nc1ncnc2c1ncn2[C@@H]1O[C@H](COP(=O)(O)OP(=O)(O)OP(=O)(O)O)[C@@H](O)[C@H]1O` [ATP], the “rate of change in CD spectrum with Sup35 and Hsp104” value on Hsp104 [2] is “markedly increased the rate”.
As to `C[S+](C)[O-]` [DMSO, dimethyl sulfoxide], the effect on conversion entry on 35S-PrPC (partially denatured PrPSc, higher levels (up to 30%)) is given as “virtually eliminated conversion”. In addition, on 35S-PrPC (partially denatured PrPSc, intermediate levels (1-3%)), the stimulation of conversion is on record as 2-3 fold. In addition, the “effect of chemical chaperones” value on 35S-PrPC (setting [4]) and at 35S-PrPC (reactions without PrPSc) was “None of the compounds tested affected” in each case.
Turning to β-galactosidase, the “CD spectrum of mixture with rPrPβ compared with predicted spectrum” value at rPrPβ is “much smaller”.
